Data as given in publication PMC9124651, “High-performance thin-layer chromatography in combination with an acetylcholinesterase-inhibition bioassay with pre-oxidation of organothiophosphates to determine neurotoxic effects in storm, waste, and surface water” (Analytical and Bioanalytical Chemistry, 2022).

Biological target: T1, AChE from electric eel (Electrophorus electricus) (Electrophorus electricus, UniProt O42275)
T1 construct: purchased Sigma-Aldrich GmbH (Steinheim, Germany)
Assay: HPTLC-(Ox)-AChE-I assay, spray method (AChE sprayed onto plates)
Format: biochemical
Settings: spray method, without oxidation; for IC10 (10% AChE inhibition), best fit / IC20 (20% AChE inhibition), best fit / IC50 (50% AChE inhibition), best fit / IC80 (80% AChE inhibition), best fit: OTPs 100 µL, oxons 10 µL applied, peak heights, n = 3
Protocol: LiChrospher 10 × 20 cm HPTLC Silica gel 60 F254s plates (Merck, Darmstadt, Germany) with a layer thickness of 170–190 µm and spherical silica particles with a size of 7 µm were used. The HPTLC plates were immersed twice in 2-propanol for 20 min, each time followed by a drying step at room temperature for 20 min. The plates then were pre-developed with methanol, dried for 20 min at room temperature, heated at 105 °C for 20 min, and stored in a desiccator for further use. The automatic TLC Sampler 4 (ATS 4, CAMAG AG, Muttenz, Switzerland) was used for sample application. The desired sample volumes were sprayed as 6-mm-wide bands onto the HPTLC plates with an application speed of 300 nL/s. The distances of the exterior bands from the edges of the plates were 15 mm. The distance from the bottom edge was 8 mm for all bands. Methanol was used as rinsing solvent. The following further application parameters were used: filling speed 15 µL/s, pre-dosage volume 200 nL, retraction volume 200 nL, rinsing vacuum time 4 s, filling vacuum time 0 s, rinsing cycles 2, and filling cycles 1. The development of the HPTLC plates was realized by the Automated Multiple Development 2 (AMD 2, CAMAG, Muttenz, Switzerland). The OTPs, their oxons, and environmental samples were separated with an eluent mixture of cyclohexane, dichloromethane, and acetone in different proportions and with increasing migration distances (Fig. S2). After each development step, a drying step of 3 min under vacuum followed. The final migration distance was 80 mm and the whole procedure took approximately 45 min. In addition, a simpler development process was used containing only the last step of the previous described method.
The following AChE-I assay was performed in parts according to Mendoza et al., Stütz et al., and Weins and Jork. AChE was buffered in TRIS/HCl at a pH of 7.8 (2.5 U/mL). The AChE solution was either sprayed onto the HPTLC plates with a glass reagent sprayer until the plates were evenly moist (approx. 10 mL) or the plates were immersed in the AChE solution using the Chromatogram Immersion Device 3 (CID 3, CAMAG, Muttenz, Switzerland). The immersion volume, speed, time, and depth were approx. 200 mL, 2.5 cm/s, 2 s, and approx. 85 mm, respectively. Afterward, the plates were placed separately in closed plastic boxes, which contained paper towels moistened with water to gain a saturated atmosphere. An incubation at 37 °C for 5 min followed. The substrate indoxyl acetate was freshly prepared in methanol at a concentration of 20 mg/mL and 5 mL was sprayed onto the HPTLC plates with a glass reagent sprayer. During 45-min incubation time at room temperature, AChE cleaves the substrate into indoxyl and acetate. The indoxyl reacts with oxygen to the blue indigo dye. When AChE was inhibited, no indigo was produced and the spot stayed white. The TLC Scanner 3 (CAMAG, Muttenz, Switzerland) was used to scan each track on the plates at 670 nm using the fluorescence mode without optical filter. The CAMAG-embedded software Wincats (Vers. 1.4.9) was used to provide chromatograms of each track and to evaluate inhibition zones.
Several amounts of an OTP mix and an oxon mix were applied on HPTLC plates (Tab. S2) and tested as described in the “Combination of HPTLC and AChE-inhibition assay” section. Three plates were used for each dilution series. The application volume was 10 µL for investigating OTPs with following oxidation and 100 µL for testing OTPs without following oxidation. The application volume for the oxons was 10 µL. They were tested without oxidation step also in triplicates. The peak heights were used for evaluation. Only peaks that have a signal-to-noise ratio ≥ 3 were considered in the evaluation. The height next to the respective peak defines the noise.

T1 sequence (O42275 24-633): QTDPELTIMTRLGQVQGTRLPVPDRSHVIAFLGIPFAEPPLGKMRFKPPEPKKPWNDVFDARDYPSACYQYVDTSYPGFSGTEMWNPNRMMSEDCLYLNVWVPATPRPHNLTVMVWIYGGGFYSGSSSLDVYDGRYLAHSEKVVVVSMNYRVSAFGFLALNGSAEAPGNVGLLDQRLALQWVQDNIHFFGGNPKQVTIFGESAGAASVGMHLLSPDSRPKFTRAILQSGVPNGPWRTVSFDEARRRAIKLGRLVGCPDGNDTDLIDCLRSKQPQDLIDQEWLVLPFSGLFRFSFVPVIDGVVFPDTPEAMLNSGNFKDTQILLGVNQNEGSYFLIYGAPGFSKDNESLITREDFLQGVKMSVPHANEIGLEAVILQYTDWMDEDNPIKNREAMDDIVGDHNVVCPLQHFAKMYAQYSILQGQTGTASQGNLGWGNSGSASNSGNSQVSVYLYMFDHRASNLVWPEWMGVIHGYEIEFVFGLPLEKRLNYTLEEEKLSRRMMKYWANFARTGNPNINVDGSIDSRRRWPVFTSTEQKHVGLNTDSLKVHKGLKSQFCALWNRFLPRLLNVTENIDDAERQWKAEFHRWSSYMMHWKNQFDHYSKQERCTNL

Compound	LOD spray method (first detected AChE-I peak with signal-to-noise ratio ≥ 3)	IC10 (10% AChE inhibition), best fit	IC20 (20% AChE inhibition), best fit	IC50 (50% AChE inhibition), best fit	IC80 (80% AChE inhibition), best fit
CCOC(=O)CC(SP(=O)(OC)OC)C(=O)OCC (stereo not shown) [Malaoxon, malaoxon]	0.1 ng/spot	0.16 ng/spot	0.28 ng/spot	0.75 ng/spot	2.0 ng/spot
CCOP(=O)(OCC)Oc1nc(Cl)c(Cl)cc1Cl [Chlorpyrifos-oxon]	0.25 ng/spot	0.72 ng/spot	1.1 ng/spot	2.5 ng/spot	5.4 ng/spot
